Source: US20100267561A1, “HERBICIDAL PYRIDAZINONE DERIVATIVES” (priority 2007, published 2010)

Experiments:
Format in all cases: in vivo
[1] = test system: blackgrass (Alopecurus myosuroides); assay: Test B pre-/postemergence plant response; conditions: for Blackgrass plant response rating: 8 g ai/ha
Procedure, shortened: (§1)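 Seeds were sown and sprayed preemergence, while plants at 2 to 18 cm (1- to 4-leaf stage) got postemergence sprays. Compounds were formulated in a non-phytotoxic solvent mixture with surfactant. After 13 to 15 days in a greenhouse, injury was rated visually against untreated controls, 0 (no effect) to 100 (complete control).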

[2] = test system: catchweed bedstraw (Galium aparine); assay: Test B pre-/postemergence plant response; conditions: Preemergence
Procedure, shortened: as §1

[3] = test system: cocklebur (Xanthium strumarium); assay: Test B pre-/postemergence plant response; conditions: for Cocklebur plant response rating: 8 g ai/ha
Procedure, shortened: as §1

[4] = test system: common (oilseed) sunflower (Helianthus annuus); assay: Test B pre-/postemergence plant response; conditions: Preemergence
Procedure, shortened: as §1

[5] = test system: common ragweed (Ambrosia elation); assay: Test B pre-/postemergence plant response; conditions: for Ragweed plant response rating: 8 g ai/ha
Procedure, shortened: as §1

[6] = test system: giant foxtail (Setaria faberii); assay: Test B pre-/postemergence plant response; conditions: for Foxtail, Giant plant response rating: 8 g ai/ha
Procedure, shortened: as §1

[7] = test system: goosegrass (Eleusine indica); assay: Test B pre-/postemergence plant response; conditions: for Goosegrass plant response rating: 8 g ai/ha
Procedure, shortened: as §1

[8] = test system: johnsongrass (Sorghum halepense); assay: Test B pre-/postemergence plant response; conditions: for Johnsongrass plant response rating: 8 g ai/ha
Procedure, shortened: as §1

[9] = test system: lambsquarters (Chenopodium album); assay: Test B pre-/postemergence plant response; conditions: for Lambsquarters plant response rating: 8 g ai/ha
Procedure, shortened: as §1

[10] = test system: large crabgrass (Digitaria sanguinalis); assay: Test B pre-/postemergence plant response; conditions: for Crabgrass, Large plant response rating: 8 g ai/ha
Procedure, shortened: as §1

[11] = test system: wheat (Triticum aestivum); assay: Test B pre-/postemergence plant response; conditions: for Wheat plant response rating: 8 g ai/ha
Procedure, shortened: as §1

wild oat (Avena fatua) = assay: Test B pre-/postemergence plant response; conditions: for Oat, Wild plant response rating: 8 g ai/ha
Procedure, shortened: as §1

[12] = test system: yellow nutsedge (Cyperus esculentus); assay: Test B pre-/postemergence plant response; conditions: for Nutsedge, Yellow plant response rating: 8 g ai/ha
Procedure, shortened: as §1

[13] = test system: windgrass (Apera spica-venti); assay: Test B postemergence plant response; conditions: for Plant response rating, Windgrass: Postemergence
Procedure, shortened: (§2)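 Following treatment of plants 2 to 18 cm high after emergence, pots were held under glass for 13 to 15 days; efficacy was then graded visually, 100 denoting complete control and a dash no test result.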

[14] = test system: winter barley (Hordeum vulgare); assay: Test B postemergence plant response; conditions: for Plant response rating, Barley: Postemergence, scale 0 to 100, 0 no effect, 100 complete control
Procedure, shortened: as §2

[15] = Postemergence, 16 g ai/ha, scale 0 to 100
[16] = Postemergence, 31 g ai/ha, scale 0 to 100, 0 no effect, 100 complete control
[17] = Postemergence, 62 g ai/ha, scale 0 to 100, 0 no effect, 100 complete control
[18] = Preemergence, 16 g ai/ha, scale 0 to 100 (0 no effect, 100 complete control)
[19] = Preemergence, 31 g ai/ha, 0 to 100 scale, 0 no effect, 100 complete control
[20] = Preemergence, 62 g ai/ha, scale 0 to 100
[21] = 16 g ai/ha, scale 0 to 100 (0 no effect, 100 complete control)
[22] = 31 g ai/ha, 0 to 100 scale, 0 no effect, 100 complete control
[23] = 8 g ai/ha, postemergence, 0-100 scale

CCc1cc(-c2ccc(Cl)cc2)nn1-c1c(OS(C)(=O)=O)cnn(C)c1=O [Compound 39]
Blackgrass plant response rating ([1]; postemergence, 0-100 scale): 0
Plant response rating, Blackgrass [1, 15]: 0
Plant response rating, Blackgrass [1, 16]: 95
Plant response rating, Blackgrass [1, 17]: 100
Plant response rating, Blackgrass [1, 18]: 90
Plant response rating, Blackgrass [1, 19]: 90
Plant response rating, Blackgrass [1, 20]: 90
Blackgrass plant response rating ([1]; Preemergence, scale 0 to 100): 40
Plant response rating, Galium [2, 21]: 0
Plant response rating, Galium [2, 22]: 0
Plant response rating, Galium ([2]; 62 g ai/ha, scale 0 to 100): 0
Galium plant response rating ([2]; 8 g ai/ha, scale 0 to 100): 0
Cocklebur plant response rating ([3]; postemergence, 0-100 scale): 0
Plant response rating, Cocklebur [3, 15]: 0
Plant response rating, Cocklebur [3, 16]: 0
Plant response rating, Cocklebur [3, 17]: 0
Plant response rating, Cocklebur [3, 18]: 0
Plant response rating, Cocklebur [3, 19]: 0
Plant response rating, Cocklebur [3, 20]: 0
Cocklebur plant response rating ([3]; Preemergence, scale 0 to 100): 0
Plant response rating, Sunflower [4, 21]: 0
Plant response rating, Sunflower [4, 22]: 0
Plant response rating, Sunflower ([4]; 62 g ai/ha, scale 0 to 100): 0
Sunflower plant response rating ([4]; 8 g ai/ha, scale 0 to 100): 0
Ragweed plant response rating ([5]; postemergence, 0-100 scale): 0
Plant response rating, Ragweed [5, 15]: 0
Plant response rating, Ragweed [5, 16]: 0
Plant response rating, Ragweed [5, 17]: 0
Plant response rating, Ragweed [5, 18]: 0
Plant response rating, Ragweed [5, 19]: 0
Plant response rating, Ragweed [5, 20]: 0
Ragweed plant response rating ([5]; Preemergence, scale 0 to 100): 0
Foxtail, Giant plant response rating ([6]; postemergence, 0-100 scale): 80
Plant response rating, Foxtail, Giant [6, 15]: 98
Plant response rating, Foxtail, Giant [6, 16]: 100
Plant response rating, Foxtail, Giant [6, 17]: 100
Plant response rating, Foxtail, Giant [6, 18]: 100
Plant response rating, Foxtail, Giant [6, 19]: 100
Plant response rating, Foxtail, Giant [6, 20]: 100
Foxtail, Giant plant response rating ([6]; Preemergence, scale 0 to 100): 100
Goosegrass plant response rating ([7]; postemergence, 0-100 scale): 20
Plant response rating, Goosegrass [7, 15]: 65
Plant response rating, Goosegrass [7, 16]: 85
Plant response rating, Goosegrass [7, 17]: 100
Plant response rating, Goosegrass [7, 18]: 100
Plant response rating, Goosegrass [7, 19]: 100
Plant response rating, Goosegrass [7, 20]: 100
Goosegrass plant response rating ([7]; Preemergence, scale 0 to 100): 95
Johnsongrass plant response rating ([8]; postemergence, 0-100 scale): 40
Plant response rating, Johnsongrass [8, 15]: 55
Plant response rating, Johnsongrass [8, 16]: 95
Plant response rating, Johnsongrass [8, 17]: 95
Plant response rating, Johnsongrass [8, 18]: 90
Plant response rating, Johnsongrass [8, 19]: 90
Plant response rating, Johnsongrass [8, 20]: 95
Johnsongrass plant response rating ([8]; Preemergence, scale 0 to 100): 75
Lambsquarters plant response rating ([9]; postemergence, 0-100 scale): 0
Plant response rating, Lambsquarters [9, 15]: 0
Plant response rating, Lambsquarters [9, 16]: 0
Plant response rating, Lambsquarters [9, 17]: 0
Plant response rating, Lambsquarters [9, 18]: 0
Plant response rating, Lambsquarters [9, 19]: 0
Plant response rating, Lambsquarters [9, 20]: 0
Lambsquarters plant response rating ([9]; Preemergence, scale 0 to 100): 0
Crabgrass, Large plant response rating ([10]; postemergence, 0-100 scale): 70
Plant response rating, Crabgrass, Large [10, 15]: 90
Plant response rating, Crabgrass, Large [10, 16]: 98
Plant response rating, Crabgrass, Large [10, 17]: 100
Plant response rating, Crabgrass, Large [10, 18]: 100
Plant response rating, Crabgrass, Large [10, 19]: 100
Plant response rating, Crabgrass, Large [10, 20]: 100
Crabgrass, Large plant response rating ([10]; Preemergence, scale 0 to 100): 60
Wheat plant response rating ([11]; postemergence, 0-100 scale): 20
Plant response rating, Wheat [11, 15]: 20
Plant response rating, Wheat [11, 17]: 98
Plant response rating, Wheat [11, 18]: 30
Plant response rating, Wheat [11, 19]: 70
Plant response rating, Wheat [11, 20]: 80
Wheat plant response rating ([11]; Preemergence, scale 0 to 100): 0
Oat, Wild plant response rating (wild oat (Avena fatua); postemergence, 0-100 scale): 95
Plant response rating, Oat, Wild (wild oat (Avena fatua); [15]): 95
Plant response rating, Oat, Wild (wild oat (Avena fatua); [16]): 100
Plant response rating, Oat, Wild (wild oat (Avena fatua); [17]): 100
Plant response rating, Oat, Wild (wild oat (Avena fatua); [18]): 90
Plant response rating, Oat, Wild (wild oat (Avena fatua); [19]): 90
Plant response rating, Oat, Wild (wild oat (Avena fatua); [20]): 95
Oat, Wild plant response rating (wild oat (Avena fatua); Preemergence, scale 0 to 100): 70
Nutsedge, Yellow plant response rating ([12]; postemergence, 0-100 scale): 0
Plant response rating, Nutsedge, Yellow [12, 15]: 0
Plant response rating, Nutsedge, Yellow [12, 16]: 0
Plant response rating, Nutsedge, Yellow [12, 17]: 0
Plant response rating, Nutsedge, Yellow [12, 18]: 0
Plant response rating, Nutsedge, Yellow [12, 19]: 0
Plant response rating, Nutsedge, Yellow [12, 20]: 0
Nutsedge, Yellow plant response rating ([12]; Preemergence, scale 0 to 100): 0
Windgrass plant response rating [13, 23]: 0
Plant response rating, Windgrass ([13]; 16 g ai/ha, scale 0 to 100): 40
Plant response rating, Windgrass ([13]; 62 g ai/ha, scale 0 to 100, 0 no effect, 100 complete control): 100
Barley plant response rating [14, 23]: 0
Plant response rating, Barley ([14]; 16 g ai/ha): 5
Plant response rating, Barley ([14]; 31 g ai/ha): 40
Plant response rating, Barley ([14]; 62 g ai/ha): 70
